The values below come from patent US20190298661A1, “Transdermal Delivery of Phenethylamine Monoamine Releasers” (priority 2016, published 2019).

Where two headings read alike, the source gives them in different places.

The subject of data set [1] is NET. Kind of data set: Release activity of phenethylamine analogs, NET. In kind it is biochemical. As to conditions: ratio of EC50 values.
The target of data set [2] is SERT (Rattus norvegicus, UniProt P31652). As to the kind of experiment: Release activity of phenethylamine analogs, SERT. In kind it is biochemical.
Data set [3] has as its system DAT. As to the kind of experiment: Release activity of phenethylamine analogs, DAT. In kind it is biochemical. As to conditions: ratio of EC50 values.
Data set [4] deals with DAT (Rattus norvegicus, UniProt P23977). As to the kind of experiment: Release activity of phenethylamine analogs, DAT. In kind it is biochemical.
Data set [5] has as its system EPIDERM. Kind of data set: Skin irritation potential of formulations, EPIDERM 3 dimensional model. As to conditions: two formulations reaching therapeutic flux. As for the experimental part:
The skin irritation potential of our formulations were tested using EPIDERM™, which is a 3 dimensional model used to assess skin irritation.

Data set [6] in a line: In vitro skin permeation study, vertical static Franz-type diffusion cells, 24 h. In kind it is in vitro ADME, human. As to conditions: for flux / flux with 10% lauric acid versus propylene glycol alone: base 20 mg/mL; for calculated passive flux over 24 hours: base form, 40 mg/ml; for percent permeated through the skin within 24 hours: base; for average amount permeated across dermatomed human skin: liquid base form; for flux enhancement compared to propylene glycol only group: base 40 mg/mL. Here is the method: To test this prediction, skin permeation studies were conducted with 4-benzylpiperidine, phenmetrazine, and PAL-353 (3-flouroamphetamine) Based on the required dosing and technical capacity of patch technology, one objective was to develop a 24-hour patch. As such, the skin permeation studies were performed for 24 hours using vertical static Franz-type diffusion cells.
The recirculating water bath system was maintained at 37° C. to bring the skin surface temperature to 32° C. Each Franz cell comprised of a donor compartment containing the drug and a receiver compartment containing 1×PBS at pH 7.4 to ensure a diffusion gradient, with human dermatomed skin (described below) clamped between the two compartments. Permeation was followed by detection of drug in the receiver compartment using an alliance HPLC Waters 2695 Separations Module attached to a Waters UV detector system. A prodigy 5 u ODS (2) 150×4.60 mm 5 micron column with mobile phase of acetonitrile and water (0.05% TFA) at a flow rate of 1 mL/min and an injection volume 20 μL, with a retention time of 5.5 min, was detected at 259 nm wavelength. The same permeation and HPLC protocol was followed with 6 Franz cells (n=6) for each condition.
PAL-353 (3-flouroamphetamine) (10 mg/mL in a vehicle suitable for the enhancement technique being used) was placed in the donor compartment of the Franz cell.
The permeation of phenmetrazine and PAL-353 (3-flouroamphetamine) (3-FA) through dermatomed human cadaver skin was further studied using static Franz diffusion cells. Permeated drugs were quantified using a validated HPLC-UV method. The passive permeation of phenmetrazine and 3-FA was evaluated at the concentrations of 10 (phenmetrazine fumarate), 20 (phenmetrazine and 3-FA bases) and 40 (phenmetrazine and 3-FA bases) mg/mL in propylene glycol (PG). Further, the enhancement effect of oleic acid (5% w/w), oleyl alcohol (5% and 10% w/w) and lauric acid (10% w/w) on the permeation of phenmetrazine and 3-FA bases at 20 and 40 mg/mL was investigated.
Chemical permeation enhancers belonging to fatty acid or fatty alcohol group, oleic acid, oleyl alcohol and lauric acid were incorporated to improve the permeation rate of phenmetrazine (40 mg/mL) and 3-flouroamphetamine (20 mg/mL).
Iontophoretic delivery of PAL-353 across dermatomed human skin was also investigated. The donor chamber was filled with 500 μL of PAL-353 solution (10 mg/ml; 54% of saturation solubility) in 10 mM PBS, pH 7.4 containing 25 mM sodium chloride (n=4). The pH of the donor formulation as measured using glass electrode was around 4.0. Anodal iontophoresis was conducted where silver (anode) and silver chloride electrodes (cathode) were placed in the donor chamber and sampling port of the receptor chamber, respectively. It was ensured that there was no contact between the anode and skin in order to avoid skin damage due to high local voltage. The electrodes were then coupled in series to a source of constant current supply (Keithley 2400 Source Meter®, Keithley Instruments Inc., Cleveland, Ohio, USA). A current density of 0.5 mA/cm^2 was applied for 4 h. However, the total duration of the permeation study was 24 h and sampling was done at 0 h, 1 h, 2 h, 3 h, 4 h, 5 h, 6 h, 8 h, 22 h and 24 h.
This study was repeated keeping all the parameters same except that no current was applied (n=4). This group served as the passive control for comparison of the iontophoretic delivery of PAL-353 across human skin. Also, in a separate study, for these two groups, after 4 h, the formulations were removed and current was stopped in the iontophoresis group. Skin resistance was then measured using the procedure explained in section 2.2.3. Results have been presented as mean±SE.
Lag time was calculated as the x-intercept of the extrapolated linear portion of the permeation profiles (cumulative drug permeated/cm^2 plotted against the time). […]

For data set [7] the following is noted: www.chemspider.com; cited from earlier work.
[8] abbreviates: 100 mg of 2% HPC gel containing 10 mg of drug, 24 h.

Sequence of SERT (P31652 whole entry): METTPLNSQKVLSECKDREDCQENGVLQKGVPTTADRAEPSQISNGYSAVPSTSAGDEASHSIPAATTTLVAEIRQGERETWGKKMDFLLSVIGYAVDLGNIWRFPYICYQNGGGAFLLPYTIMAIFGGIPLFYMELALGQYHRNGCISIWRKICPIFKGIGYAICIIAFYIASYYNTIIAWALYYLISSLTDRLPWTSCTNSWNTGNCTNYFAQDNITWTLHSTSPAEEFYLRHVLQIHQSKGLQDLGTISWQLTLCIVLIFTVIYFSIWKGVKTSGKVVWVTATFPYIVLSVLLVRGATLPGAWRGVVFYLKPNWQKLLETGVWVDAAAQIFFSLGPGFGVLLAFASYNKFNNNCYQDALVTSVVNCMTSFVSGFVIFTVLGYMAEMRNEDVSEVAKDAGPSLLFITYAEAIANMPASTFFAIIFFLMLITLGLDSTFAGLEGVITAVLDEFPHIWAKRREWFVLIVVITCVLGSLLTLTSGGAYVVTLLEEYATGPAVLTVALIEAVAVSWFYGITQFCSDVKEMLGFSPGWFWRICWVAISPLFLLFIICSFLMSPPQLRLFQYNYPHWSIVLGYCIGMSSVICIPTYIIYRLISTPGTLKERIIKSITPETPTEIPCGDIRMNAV
Sequence of DAT (Rattus norvegicus, UniProt P23977) (P23977 whole entry): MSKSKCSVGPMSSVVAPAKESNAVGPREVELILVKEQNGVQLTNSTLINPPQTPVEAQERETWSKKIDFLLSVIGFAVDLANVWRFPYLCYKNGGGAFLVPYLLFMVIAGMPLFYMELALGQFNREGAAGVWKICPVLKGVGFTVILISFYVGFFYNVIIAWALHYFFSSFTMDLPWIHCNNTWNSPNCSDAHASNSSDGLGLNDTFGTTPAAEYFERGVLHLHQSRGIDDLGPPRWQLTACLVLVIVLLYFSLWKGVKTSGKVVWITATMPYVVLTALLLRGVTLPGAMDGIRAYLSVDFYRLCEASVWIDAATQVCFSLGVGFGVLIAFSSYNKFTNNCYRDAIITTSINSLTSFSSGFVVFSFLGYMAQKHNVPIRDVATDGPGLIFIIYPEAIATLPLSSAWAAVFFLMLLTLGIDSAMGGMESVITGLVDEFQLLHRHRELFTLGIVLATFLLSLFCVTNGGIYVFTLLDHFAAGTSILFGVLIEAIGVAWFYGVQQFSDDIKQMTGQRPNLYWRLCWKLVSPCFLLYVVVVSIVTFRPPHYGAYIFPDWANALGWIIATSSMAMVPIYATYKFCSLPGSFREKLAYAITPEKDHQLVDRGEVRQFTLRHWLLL

As to `CCc1cccc(CC(C)N)c1` (centres unmarked) [PAL-1386], the SERT/NET in data set [1] was determined as 1.4. Besides, the response in data set [2] was half-maximal at 160 nM (EC50). In data set [3], the SERT/DA is listed as 1.3.
Turning to `CC(N)Cc1ccc(C(C)C)cc1` (centres unmarked) [PAL-334], the EC50 (in general, the concentration giving half of the maximal effect) in data set [2] stood at 79.2 nM.
In the case of `CC(N)Cc1ccc(F)cc1` (centres unmarked) [PAL-303], in data set [1], the SERT/NET was 33.5. In addition, the EC50 in data set [2] came out at 939 nM. For the same compound, in data set [3], the SERT/DA was found to be 18.2.
With `CC(N)Cc1ccccc1C(F)(F)F` (centres unmarked) [PAL-307], the EC50 in data set [2] was > 10000 nM.
As for `CC(N)Cc1cccc(Cl)c1` (centres unmarked) [PAL-304], the SERT/NET in data set [1] came to 12.8. For the same compound, the EC50 was 120 nM in data set [2] (read-out: EC50 SERT release) and 11.8 nM in data set [4]. For the same compound, in data set [3], the SERT/DA is given as 10.2.
Regarding `CC(N)Cc1cccc(F)c1` (centres unmarked) [PAL-353, 3-fluoroamphetamine], the SERT/NET in data set [1] stood at 120. Besides, the EC50 in data set [2] was determined as 1940 nM. Moreover, the SERT/DA in data set [3] is listed as 80. Further, the “predicted skin irritation of formulations reaching therapeutic flux” value in data set [5] was “irritant”. The “passive permeation over 24 h” value in data set [6] (10 mg/ml in 10 mM PBS, no current) came out at 3.94±0.53 μg/cm^2. In data set [6] (20 mg/mL, 5% w/w oleic acid, not significant), the “flux enhancement compared to PG alone” value is reported as ~40%. For the same compound, the “flux as percent of the control group” value in data set [6] (20 mg/mL, 5% w/w oleyl alcohol in PG) came to 389%; in data set [6] (20 mg/mL, 10% w/w oleyl alcohol in PG), 370%. Further, the “increase of cumulative drug permeation by iontophoresis versus passive” value in data set [6] (PBS, 24 h period) was determined as 548 fold. For the same compound, the “enhancement of skin permeation by ablative laser versus passive” value in data set [6] (PG, 24 h) worked out at 508 times. Further, in data set [6] (anodal iontophoresis, x-intercept of linear portion of permeation profile), the lag time entry was “around 3.5 h”. Also, the flux in data set [6] (5% oleic acid in PG) turned out to be 109.8±17.94 μg/cm^2/h; in data set [6] (10% oleyl alcohol in PG), 292.0±31.70 μg/cm^2/h. Besides, the “flux with 10% lauric acid versus propylene glycol alone” value is given as “did not show significant difference” in data set [6] (10% w/w lauric acid in PG, listed as 3-FA base) and “did not impact the flux at all” in data set [6] (10% w/w lauric acid in PG, listed as 3-flouroamphetamine). Besides, the “calculated passive flux over 24 hours” value in data set [6] (passive) is given as 3784.62±173.52 μg/cm^2. In addition, the “percent permeated through the skin within 24 hours” value worked out at 41.4±1.18% in data set [6] (20 mg/mL in PG, passive) and 74.45±3.43% in data set [6] (40 mg/mL in PG, passive). In data set [6] (hydrochloride in PG, 24 h), the “enhancement by maltose microneedles versus control” value came out at 7 fold. Besides, in data set [6] (hydrochloride, solution in PG), the “permeation after 24 h, skin pre-treated with maltose microneedles” value is 7.35±4.87 μg/cm^2. The “passive permeation after 24 h” value in data set [6] (hydrochloride, solution in propylene glycol (control)) came out at 1.03±0.17 μg/cm^2. For the same compound, in data set [6] (passive), the “passive permeation in PBS compared to PG” value is listed as “approximately four”. In addition, in data set [6] (salt form (hydrochloride), 10 mg/ml in PBS, 0.5 mA/cm^2 for 4 h, 24 h), the “permeation over 24 hours with anodal iontophoresis” value is 2159.43±301.14 μg/cm^2. The “permeation after skin microporation by ablative laser” value in data set [6] (solution in PG, P.L.E.A.S.E. laser, 24 h) is listed as 523.24±86.79 μg/cm^2.
As for `c1ccc(CC2CCNCC2)cc1` [4-benzylpiperidine, 4-Benzylpiperidine], in data set [6] (setting [8]), the “average amount permeated across human dermatomed skin” value is reported as 1824±425 μg/cm^2 and the “share of drug permeated across human dermatomed skin” value is given as “about 18%”. The “average amount permeated across dermatomed human skin” value in data set [6] (100 μL of 1 mg/ml in PG, passive, 24 h) is recorded as 33±8 μg/cm^2. In data set [6] (100 μL of 10 mg/ml in PG, passive, 24 h), the “average amount permeated across dermatomed human skin” value worked out at 288±71 μg/cm^2.
For the compound `COc1ccc(CC(C)N)cc1` (centres unmarked) [PAL-162], the SERT/NET in data set [1] is 0.4. The compound also registered an EC50 in data set [2] of 63.3 nM. Moreover, the SERT/DA in data set [3] is 0.1.
Consider “Phenmetrazine fumarate [reference compound]”, for which, in data set [6] (10 mg/mL in propylene glycol), the “passive permeation over 24 hours” value is “no permeation”.
For the compound `Cc1cccc(CC(C)N)c1` (centres unmarked) [PAL-314], the SERT/NET in data set [1] is on record as 11.9. The compound also had an EC50 in data set [2] of 218 nM. Further, the SERT/DA in data set [3] stood at 6.5.
The matching figures for `CCc1ccc(CC(C)N)cc1` (centres unmarked) [PAL-335]: 0.3, 36.1 nM and 0.1.
On to `Cc1ccccc1CC(C)N` (centres unmarked) [PAL-315], for which the SERT/NET in data set [1] was 26.3. The same compound returned an EC50 in data set [2] of 973 nM. The SERT/DA in data set [3] amounted to 7.7.
The matching figures for `CC(N)Cc1ccc(Cl)cc1` (centres unmarked) [PAL-24]: 0.9, 21.5 nM and 0.3.
For `C[C@H]1[C@H](c2ccccc2)OCCN1C` [phendimetrazine], in data set [7], the log P (as a rule, a log measure of how a compound divides between an organic and an aqueous phase) is reported as 2.17.
Consider `CC(N)Cc1ccc(OC(F)(F)F)cc1` (centres unmarked) [PAL-309], for which, in data set [1], the SERT/NET was found to be 0.2. Further, the midpoint of the response in data set [2], the EC50, lay at 82.2 nM. Also, the SERT/DA in data set [3] was 0.0.
Consider `CC(N)Cc1cccc(C(F)(F)F)c1` (centres unmarked) [PAL-677], for which the SERT/NET in data set [1] stood at 0.6. This compound registered an EC50 in data set [2] of 104 nM. Besides, the SERT/DA in data set [3] stood at 0.1.
Take `COc1cccc(CC(C)N)c1` (centres unmarked) [PAL-161]: the SERT/NET in data set [1] stood at 5.7. The compound further returned an EC50 in data set [2] of 328 nM. In addition, the SERT/DA in data set [3] is 3.2.
The like results for `Cc1ccc(CC(C)N)cc1` (centres unmarked) [PAL-313] were, in that order, 2.4, 53.4 nM and 1.2.
`CC1NCCOC1c1ccccc1` (centres unmarked) [phenmetrazine, Phenmetrazine, reference compound]: the “predicted skin irritation of formulations reaching therapeutic flux” value in data set [5] was “irritant”. Moreover, in data set [6] (40 mg/mL, 5% w/w oleyl alcohol in PG), the “flux increase compared to group without enhancer” value is ~10 folds. The “efficiency of oleyl alcohol as permeation enhancer over oleic acid” value in data set [6] (40 mg/mL, both enhancers at 5% w/w) came to 53.4%. For the same compound, the “flux enhancement by oleyl alcohol compared to lauric acid” value in data set [6] (40 mg/mL, irrespective of oleyl alcohol concentration) is on record as ~240%. Further, the “flux enhancement compared to propylene glycol only group” value is recorded as 7.6 fold in data set [6] (5% w/w oleic acid in PG); 3.4 fold in data set [6] (10% w/w lauric acid in PG); ~10 fold in data set [6] (10% w/w oleyl alcohol in PG); 11.4 fold in data set [6] (10% w/w oleyl alcohol in PG, listed as phenmetrazine base). In addition, the “calculated passive flux over 24 hours” value in data set [6] (passive) is 359.05±82.36 μg/cm^2. Further, the “percent permeated through the skin within 24 hours” value amounted to 1.86±0.41% in data set [6] (20 mg/mL in PG, passive) and 5.74±1.32% in data set [6] (40 mg/mL in PG, passive).
